For data set [1], the target named is T1, human β3 adrenergic receptor (Homo sapiens, UniProt P13945).
T1 construct: Full length β3 AR clones (402 amino acids) containing the last 6 amino acids of hβ3-AR are prepared; expressed in transfected cells; host or cells: CHO (Chinese hamster ovary) cells
Put plainly: cAMP (SPA) response in CHO cells transfected with human β3 adrenergic receptor. Type of data set: cell-based. Also noted: key: fraction of maximal isoproterenol (10^-5 M) response. Particulars: maximal response relative to maximal response of isoproterenol at 10^-5 M. The gist of the method: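 Reactions were stopped with 0.2N HCl and neutralised, and cAMP was measured by SPA. Activity is expressed as percent of the maximal 10^−5 M isoproterenol response.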

The structures appear in SMILES notation.

T1 sequence (P13945 whole entry): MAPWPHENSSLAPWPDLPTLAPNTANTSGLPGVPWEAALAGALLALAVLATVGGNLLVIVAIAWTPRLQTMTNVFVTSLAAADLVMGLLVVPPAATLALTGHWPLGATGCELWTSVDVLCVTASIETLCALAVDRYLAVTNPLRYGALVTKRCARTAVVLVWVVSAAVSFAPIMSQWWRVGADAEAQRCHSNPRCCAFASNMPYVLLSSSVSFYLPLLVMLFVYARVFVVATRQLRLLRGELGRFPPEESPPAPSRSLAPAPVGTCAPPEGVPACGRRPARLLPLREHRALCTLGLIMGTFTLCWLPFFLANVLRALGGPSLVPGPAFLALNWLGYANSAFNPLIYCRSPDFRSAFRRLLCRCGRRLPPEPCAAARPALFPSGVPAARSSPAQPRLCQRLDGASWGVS

For `CS(=O)(=O)Nc1cc(C(O)CNC2CCN(c3ccc(CC4NC(=O)NC4=O)cc3)CC2)ccc1O` (centres unmarked) [Example 87, N-[5-(2-{1-[4-(2,5-Dioxo-imidazolidin-4-ylmethyl)-phenyl]-piperidin-4-ylamino}-1-hydroxy-ethyl)-2-hydroxy-phenyl]-methanesulfonamide], the melting point (as a rule, the temperature of the solid-liquid transition) was > 105 °C (dec.). For the same molecule, the “IA(β3)” value in data set [1] was 1.
For `N=C1NC(=O)C(Cc2ccc(N3CCC(NC[C@H](O)COc4cccc5[nH]c(=O)[nH]c45)CC3)cc2)S1` (stereo partly drawn) [Example 89, 4-((2S)-2-Hydroxy-3-{1-[4-(2-imino-4-oxo-thiazolidin-5-ylmethyl)-phenyl]-piperidin-4-ylamino}-propoxy)-1,3-dihydro-benzoimidazol-2-one], in that order: > 155 °C (dec.) and 1.1.
On the same counts, the results for `O=C1CCc2c(OC[C@@H](O)CNC3CCN(c4ccc(CC5SC(=O)NC5=O)cc4)CC3)ccc(O)c2N1` (stereo partly drawn) [Example 91, 5-(4-{4-[(2S)-2-Hydroxy-3-(8-hydroxy-2-oxo-1,2,3,4-tetrahydro-quinolin-5-yloxy)-propylamino]-piperidin-1-yl}-benzyl)-thiazolidine-2,4-dione] are > 140 °C (dec.) and 1.2.
Take `CS(=O)(=O)Nc1cc(OC[C@@H](O)CNC2CCN(c3ccc(CC4SC(=O)NC4=O)cc3)CC2)ccc1O` (stereo partly drawn) [Example 92, N-[5-((2S)-3-{1-[4-(2,4-Dioxo-thiazolidin-5-ylmethyl)-phenyl]-piperidin-4-ylamino}-2-hydroxy-propoxy)-2-hydroxy-phenyl]-methanesulfonamide]: the melting point was > 70 °C (dec.). Further, the “IA(β3)” value in data set [1] was 1.1.
For `O=C1NC(=O)C(Cc2ccc(N3CCC(NC[C@H](O)COc4ccc(O)c(NS(=O)(=O)c5ccccc5)c4)CC3)cc2)S1` (stereo partly drawn) [Example 93, N-[5-((2S)-3-{1-[4-(2,4-Dioxo-thiazolidin-5-ylmethyl)-phenyl]-piperidin-4-ylamino}-2-hydroxy-propoxy)-2-hydroxy-phenyl]-benzenesulfonamide], in that order: > 120 °C (dec.) and 1.
For `CS(=O)(=O)Nc1cc([C@@H](O)CNC2CCN(c3ccc(CC4SC(=O)NC4=O)cc3)CC2)ccc1Cl` (stereo partly drawn) [Example 95, N-[2-Chloro-5-((1R)-2-{1-[4-(2,4-dioxo-thiazolidin-5-ylmethyl)-phenyl]-piperidin-4-ylamino}-1-hydroxy-ethyl)-phenyl]-methanesulfonamide], in that order: > 105 °C (dec.) and 0.59.
On the same counts, the results for `O=C1NC(=O)C(Cc2ccc(N3CCC(NC[C@H](O)c4ccc(O)c(NS(=O)(=O)c5ccccc5)c4)CC3)cc2)S1` (stereo partly drawn) [Example 96, N-(5-{(1R)-2-[(1-{4-[(2,4-Dioxo-1,3-thiazolidin-5-yl)methyl]phenyl}piperidin-4-yl)amino]-1-hydroxyethyl}-2-hydroxyphenyl)benzenesulfonamide] are > 150 °C (dec.) and 0.93.
`CS(=O)(=O)Nc1cc(C(O)CNC2CCN(c3ccc(-c4nnn[nH]4)cc3)CC2)ccc1O` (centres unmarked) [Example 97, N-[2-Hydroxy-5-(1-hydroxy-2-{1-[4-(1H-tetrazol-5-yl)-phenyl]-piperidin-4-ylamino}-ethyl)-phenyl]-methanesulfonamide]: the melting point was > 175 °C (dec.). Moreover, the “IA(β3)” value in data set [1] was 0.9.
For `CCOC(=O)Cn1nnnc1-c1ccc(N2CCC(NC[C@H](O)c3ccc(O)c(NS(C)(=O)=O)c3)CC2)cc1` [Example 98], in that order: > 140 °C (dec.) and 1.
On the same counts, the results for `CS(=O)(=O)Nc1cc([C@@H](O)CNC2CCN(c3ccc(-c4nnnn4CC(=O)O)cc3)CC2)ccc1O` [Example 99, [5-(4-{4-[((2R)-2-Hydroxy-2-{4-hydroxy-3-[(methylsulfonyl)amino]phenyl}ethyl)amino]-1-piperidinyl}phenyl)-1H-tetraazol-1-yl]acetic acid] are > 210 °C (dec.) and 0.97.
For `CS(=O)(=O)Nc1cc([C@@H](O)CNC2CCN(c3ccc(-c4nnn(CC(=O)O)n4)cc3)CC2)ccc1O` [Example 100, [5-(4-{4-[((2R)-2-Hydroxy-2-{4-hydroxy-3-[(methylsulfonyl)amino]phenyl}ethyl)amino]-1-piperidinyl}phenyl)-2H-tetraazol-2-yl]acetic acid], in that order: > 240 °C (dec.) and 0.9.
In turn, `O=C1NC(=O)C(Cc2ccc(N3CCC(NC[C@H](O)COc4cccnc4)CC3)cc2)S1` (stereo partly drawn) [Example 125, 5-(4-{4-[(2S)-2-Hydroxy-3-(pyridin-3-yloxy)-propylamino]-piperidin-1-yl}-benzyl)-thiazolidine-2,4-dione] gave a melting point of 130 to 132 °C. The “IA(β3)” value in data set [1] was found to be 0.36.
On the same counts, the results for `O=C1NC(=O)C(Cc2ccc(N3CCC(NC[C@@H](O)c4cccnc4)CC3)cc2)S1` (stereo partly drawn) [Example 131, 5-{4-[4-((2S)-2-Hydroxy-2-pyridin-3-yl-ethylamino)-piperidin-1-yl]-benzyl}-thiazolidine-2,4-dione] are > 88 °C (dec.) and 0.52.
`O=C1NC(=O)C(Cc2ccc(N3CCC(NC[C@H](O)c4cccnc4)CC3)cc2)S1` (stereo partly drawn) [Example 136, 5-{4-[4-((2R)-2-Hydroxy-2-pyridin-3-yl-ethylamino)-piperidin-1-yl]-benzyl}-thiazolidine-2,4-dione]: the melting point was 87 °C (dec.). Moreover, the “IA(β3)” value in data set [1] was 0.9.
As to `CS(=O)(=O)Nc1cc([C@@H](O)CNC2CCN(c3ccc(-c4cc(=O)[nH][nH]4)cc3)CC2)ccc1O` [Example 146, N-[(2R)-2-Hydroxy-5-(1-hydroxy-2-{1-[4-(5-oxo-2,5-dihydro-1H-pyrazol-3-yl)-phenyl]-piperidin-4-ylamino}-ethyl)-phenyl]-methanesulfonamide], the melting point lay in the range of 225 to 227 °C. Moreover, the “IA(β3)” value in data set [1] is recorded as 0.91.
Take `CCOC(=O)c1ccc(N2CCC(NC[C@H](O)COc3cccc4[nH]c(=O)[nH]c34)CC2)cc1` [Example 179]: the melting point is > 170 °C (dec.). For the same molecule, the “IA(β3)” value in data set [1] is listed as 0.85.
On the same counts, the results for `CS(=O)(=O)Nc1cc([C@@H](O)CNC2CCN(c3ccc(CC(=O)O)cc3)CC2)ccc1O` [Example 182, (4-{4-[(2R)-2-Hydroxy-2-(4-hydroxy-3-methanesulfonylamino-phenyl)-ethylamino]-piperidin-1-yl}-phenyl)-acetic acid] are > 140 °C (dec.) and 0.86.
For `CCOC(=O)/C=C/c1ccc(N2CCC(NC[C@H](O)c3ccc(O)c(NS(C)(=O)=O)c3)CC2)cc1` [Example 183, (E)-3-(4-{4-[(2R)-2-Hydroxy-2-(4-hydroxy-3-methanesulfonylamino-phenyl)-ethylamino]-piperidin-1-yl}-phenyl)-acrylic acid ethyl ester], in that order: 103 to 106 °C and 0.84.
Consider `CS(=O)(=O)Nc1cc([C@@H](O)CNC2CCN(c3ccc(CCC(=O)O)cc3)CC2)ccc1O` [Example 184, 3-(4-{4-[(R)-2-Hydroxy-2-(4-hydroxy-3-methanesulfonylamino-phenyl)-ethylamino]-piperidin-1-yl}-phenyl)-propionic acid], for which the melting point is 130 to 133 °C. Also, the “IA(β3)” value in data set [1] came to 1.1.
On the same counts, the results for `CS(=O)(=O)Nc1cc([C@@H](O)CNC2CCN(c3ccc(COCC(=O)O)cc3)CC2)ccc1O` [Example 185, (4-{4-[(2R)-2-Hydroxy-2-(4-hydroxy-3-methanesulfonylamino-phenyl)-ethylamino]-piperidin-1-yl}-benzyloxy)-acetic acid] are > 145 °C (dec.) and 0.69.
For the molecule `CCOC(=O)CCc1ccc(N2CCC(NC[C@H](O)c3ccc(O)c(NS(C)(=O)=O)c3)CC2)cc1` [Example 187, 3-(4-{4-[(2R)-2-Hydroxy-2-(4-hydroxy-3-methanesulfonylamino-phenyl)-ethylamino]-piperidin-1-yl}-phenyl)-propionic acid ethyl ester], the melting point is 76 to 78 °C. For the same molecule, the “IA(β3)” value in data set [1] is listed as 1.03.
With `CCOC(=O)C(=Cc1ccc(N2CCC(NCC(O)c3ccc(O)c(NS(C)(=O)=O)c3)CC2)cc1)C(=O)OCC` (centres unmarked) [Example 188, 2-(4-{4-[2-Hydroxy-2-(4-hydroxy-3-methanesulfonylamino-phenyl)-ethylamino]-piperidin-1-yl}-benzylidene)-malonic acid diethyl ester], the melting point is > 80 °C (dec.). The “IA(β3)” value in data set [1] worked out at 0.91.
As for `CS(=O)(=O)Nc1cc([C@@H](O)CNC2CCN(c3ccc(C(N)=O)cc3)CC2)ccc1O` [Example 190, 4-{4-[(2R)-2-Hydroxy-2-(4-hydroxy-3-methanesulfonylamino-phenyl)-ethylamino]-piperidin-1-yl}-benzamide], the melting point was > 75 °C (dec.). The “IA(β3)” value in data set [1] was 1.12.
On the same counts, the results for `CS(=O)(=O)Nc1cc([C@@H](O)CNC2CCN(c3ccc(C(=O)NOCc4ccccc4)cc3)CC2)ccc1O` [Example 191, N-Benzyloxy-4-{4-[(2R)-2-hydroxy-2-(4-hydroxy-3-methanesulfonylamino-phenyl)-ethylamino]-piperidin-1-yl}-benzamide] are > 70 °C (dec.) and 1.
On the same counts, the results for `CCOC(=O)CC[C@H](NC(=O)c1ccc(N2CCC(NC[C@H](O)c3ccc(O)c(NS(C)(=O)=O)c3)CC2)cc1)C(=O)OCC` [Example 192, Diethyl(2S)-2-[(4-{4-[((2R)-2-hydroxy-2-{4-hydroxy-3-[(methylsulfonyl)amino]phenyl}ethyl)amino]-1-piperidinyl}benzoyl)amino]pentanedioate] are > 75 °C (dec.) and 0.97.

For the origin of these results see US7022716B2, “Cyclic amine phenyl beta-3 adrenergic receptor agonists” (Wyeth, priority 2000, dated 2006).
